From US8354407B2 (Boehringer Ingelheim International GmbH, priority 2006, dated 2013)

Biological target: T1, full-length human PKCα enzyme (Homo sapiens, UniProt P17252)
T1 construct: full-length human PKCα enzyme; purchased Upstate Biotechnology
Experiment: Assessment of PKC-α Inhibitory Activity (MALDI-TOF kinase assay)
Type: biochemical
Settings: full-length human PKCα 0.12 μg/ml; ATP 45 μM; neurogranin 28-43 peptide 22 μM; 30 minute incubation at 24° C.; MALDI-TOF MS readout
Experimental: Measurement of PKCα enzyme activity is performed using full-length human PKCα enzyme (Upstate Biotechnology) at a final concentration of 0.12 μg/ml in a kinase assay buffer (0.09 mg/ml bovine serum albumin (BSA), 210 μM ethylenediaminetetraacetic acid (EDTA), 360 μM CaCl2, 1 mM Tris-HCl, pH=7.5, 0.5 mM MgCl2, 0.015 mg/ml phosphatidylserine and 0.015 mg/ml diacylglycerol). The reaction is initiated by addition of adenosine triphosphate (ATP; final concentration 45 μM) and a peptide substrate consisting of amino acids 28-43 (Ala-Ala-Lys-Ile-Gln-Ala-Ser-Phe-Arg-Gly-His-Met-Ala-Arg-Lys-Lys) of neurogranin (Promega; final concentration 22 μM). After a 30 minute incubation at 24° C. the reaction is terminated by adding 5 μL of the reaction mixture into 50 μL of MALDI matrix solution (5 mg/ml α-cyano-4-hydroxycinnamic acid in 50% Acetonitrile/H2O, 0.1% TFA, 5 mM ammonium phosphate). Two microliters of the stopped reaction mixture is transferred onto a MALDI-TOF mass spectrometer target plate.
All spectra are collected on an Applied Biosystems 4700 Proteomics Analyzer MALDI-TOF MS equipped with a Nd:YAG laser (355 nm, 3 ns pulse width, 200 Hz repetition rate) in negative ion reflector mode. The system is operated with 4700 Explorer software, version 3.0. Automated acquisition parameters are adjusted to capture and average only those individual spectra within defined success criteria. Specifically, signal intensities for the substrate peptide are set to a minimum threshold of 3000 counts and a maximum intensity of 65,000 counts. This ensured that neither null spectra nor saturated spectra are averaged into the final readout. Between 1000 and 1500 laser shots are averaged for each sample. Data are collected in triplicate from 3 successive days to capture the maximum variability related to preparation of enzyme reaction, transfer of samples to MALDI target plates, data collection, and data extraction.
The isotope cluster areas for each peptide substrate and product peaks are extracted into a Microsoft Excel worksheet from the 10×10 array of spectral data simultaneously using the automated analysis function provided within the 4700 Explore software. The isotope cluster area is defined by the software algorithm based on the molecular weight and the general elemental composition of the peptides. The percent conversion (% C) of substrate to product is calculated as the cluster area of the product (P) divided by the sum of the cluster areas of the substrate (S) and the product multiplied by 100 as represented by the following equation: […]
For dose-dependent inhibition studies, the inhibition is plotted as a % Maximal Activity (% MA). Equation one is a measure of the ratio of product to substrate then solving for the % C. However, to measure inhibition of the enzyme activity, one must measure the degree to which that activity (% C) is curtailed. Thus the dose-dependant inhibition data is plotted as % MA where the maximal activity is the % C measured in control reactions with no inhibitor as represented by the following equation: […]

Row | SMILES | IC50 [nM]
1 | O=C1CCCN1CCCNc1ccnc(Nc2cccc(Cl)c2)n1 [1-{3-[2-(3-Chlorophenylamino)-pyrimidin-4-ylamino]-propyl}-pyrrolidin-2-one] | 710
2 | O=S(=O)(NCc1cccnc1)c1cccc(Nc2nccc(NCCCN3CCOCC3)n2)c1 [3-[4-(3-Morpholin-4-yl-propylamino)-pyrimidin-2-ylamino]-N-(pyridin-3-ylmethyl)-benzenesulfonamide] | 52
3 | NS(=O)(=O)c1cccc(Nc2nccc(NCCCN3CCOCC3)n2)c1 [3-[4-(3-Morpholin-4-yl-propylamino)-pyrimidin-2-ylamino]-benzenesulfonamide] | 14
4 | CC(C)NC(=O)c1cccc(Nc2nccc(NCCCN3CCCC3)n2)c1 [N-Isopropyl-3-[4-(3-pyrrolidin-1-yl-propylamino)-pyrimidin-2-ylamino]-benzamide] | 344
5 | FC(F)(F)c1cc(Nc2nccc(NCCCN3CCOCC3)n2)cc(C(F)(F)F)c1 [N^2-(3,5-Bis-trifluoromethyl-phenyl)-N^4-(3-morpholin-4-yl-propyl)-pyrimidine-2,4-diamine] | 21
6 | Clc1cccc(Nc2nccc(NCC3CCNCC3)n2)c1 [N^2-(3-Chloro-phenyl)-N^4-piperidin-4-ylmethyl-pyrimidine-2,4-diamine] | 37
7 | CN1CCCC(CNc2ccnc(Nc3cccc(Cl)c3)n2)C1 (stereo not drawn) [N^2-(3-Chlorophenyl)-N^4-(1-methylpiperidin-3-ylmethyl)-pyrimidine-2,4-diamine] | 4
8 | CN1CCC(CNc2ccnc(Nc3cccc(Cl)c3)n2)CC1 [N^2-(3-Chlorophenyl)-N^4-(1-methylpiperidin-4-yl-methyl)-pyrimidine-2,4-diamine] | 30
9 | Clc1cccc(Nc2nccc(NCCCN3CCCC3)n2)c1 [N^2-(3-Chlorophenyl)-N^4-(3-pyrrolidin-1-yl-propyl)-pyrimidine-2,4-diamine] | 3
10 | CN1C2CCC1CC(Nc1ccnc(Nc3cccc(Cl)c3)n1)C2 (stereo not drawn) [N^2-(3-Chlorophenyl)-N^4-(8-methyl-8-azabicyclo[3.2.1]oct-3-yl)-pyrimidine-2,4-diamine] | 4
11 | CN1CCCC1CCNc1ccnc(Nc2cccc(Cl)c2)n1 (stereo not drawn) [N^2-(3-Chlorophenyl)-N^4-[2-(1-methylpyrrolidin-2-yl)-ethyl]-pyrimidine-2,4-diamine] | 0.4
12 | CN1CCN(CCCNc2ccnc(Nc3cccc(Cl)c3)n2)CC1 [N^2-(3-Chlorophenyl)-N^4-[3-(4-methylpiperazin-1-yl)-propyl]-pyrimidine-2,4-diamine] | 5
13 | Clc1cccc(Nc2nccc(NCC3CNCCO3)n2)c1 (stereo not drawn) [N^2-(3-Chlorophenyl)-N^4-morpholin-2-ylmethyl-pyrimidine-2,4-diamine] | 23
14 | Clc1cccc(Nc2nccc(NCC3CCCNC3)n2)c1 (stereo not drawn) [N^2-(3-Chlorophenyl)-N^4-piperidin-3-ylmethyl-pyrimidine-2,4-diamine] | 25
15 | CN1CC[C@@H](CNc2ccnc(Nc3cccc(Cl)c3)n2)C1 [N^2-(3-Chlorophenyl)-N^4-{[(3S)-1-methylpyrrolidin-3-yl]methyl}pyrimidine-2,4-diamine] | 13
16 | CN1CC[C@H](CNc2ccnc(Nc3cccc(Cl)c3)n2)C1 [N^2-(3-Chlorophenyl)-N^4—[(3R)-1-methylpyrrolidin-3-ylmethyl]-pyrimidine-2,4-diamine] | 7
17 | CC(C)c1cccc(Nc2nccc(NCCCN3CCOCC3)n2)c1 [N^2-(3-Isopropylphenyl)-N^4-(3-morpholin-4-yl-propyl)-pyrimidine-2,4-diamine] | 80
18 | Cc1cccc(Nc2nccc(NCCCN3CCCC3)n2)c1 [N^2-(3-Methylphenyl)-N^4-(3-pyrrolidin-1-yl-propyl)-pyrimidine-2,4-diamine] | 40
19 | O=[N+]([O-])c1cccc(Nc2nccc(NCCCN3CCOCC3)n2)c1 [N^2-(3-Nitrophenyl)-N^4-(3-morpholin-4-yl-propyl)-pyrimidine-2,4-diamine] | 1
20 | O=[N+]([O-])c1cccc(Nc2nccc(NCCCN3CCCC3)n2)c1 [N^2-(3-Nitrophenyl)-N^4-(3-pyrrolidin-1-yl-propyl)-pyrimidine-2,4-diamine] | 2
21 | Clc1cc(Nc2nccc(NCCCN3CCCC3)n2)ccc1OCc1ccccc1 [N^2-(4-(Benzyloxy)-3-chlorophenyl)-N^4-(3-pyrrolidin-1-yl-propyl)-pyrimidine-2,4-diamine] | 40
22 | CN1CCN(S(=O)(=O)c2cccc(Nc3nccc(NCCCN4CCOCC4)n3)c2)CC1 [N^2-[3-(4-Methyl-piperazine-1-sulfonyl)phenyl]-N^4-(3-morpholin-4-ylpropyl)-pyrimidine-2,4-diamine] | 83
23 | CN(C)c1cccc(Nc2nccc(NCCCN3CCOCC3)n2)c1 [N^2-[3-(N,N-dimethylamino)-phenyl]-N^4-(3-morpholin-4-yl-propyl)-pyrimidine-2,4-diamine] | 53
24 | COc1cccc(Nc2nccc(NCCCN3CCCC3)n2)c1 [N^2-[3-Methoxyphenyl]-N^4-(3-pyrrolidin-1-yl-propyl)-pyrimidine-2,4-diamine] | 16
25 | FC(F)(F)c1cccc(Nc2nccc(NCCCN3CCCC3)n2)c1 [N^2-[3-Trifluoromethyl-phenyl]-N^4-(3-pyrrolidin-1-yl-propyl)-pyrimidine-2,4-diamine] | 0.5

Second part, the compound after the results:

Row | IC50 [nM] | SMILES
26 | 23 | O=S(=O)(Nc1ccccc1)c1cccc(Nc2nccc(NCCCN3CCOCC3)n2)c1
27 | 12 | O=C(Nc1cccc(Cl)c1)c1cccc(Nc2nccc(NCCCN3CCCC3)n2)c1 [N-(3-Chlorophenyl)-3-[4-(3-pyrrolidin-1-yl-propylamino)-pyrimidin-2-ylamino]-benzamide]
28 | 25 | O=C(Nc1cccc(Nc2nccc(NCCCN3CCOCC3)n2)c1)c1ccccc1 [N-{3-[4-(3-Morpholin-4-yl-propylamino)-pyrimidin-2-ylamino]-phenyl}-benzamide]
29 | 112 | O=C(Nc1cccc(Nc2nccc(NCCCN3CCOCC3)n2)c1)c1cccnc1 [N-{3-[4-(3-Morpholin-4-yl-propylamino)-pyrimidin-2-ylamino]-phenyl}-nicotinamide]
30 | 1 | Brc1cccc(Nc2nccc(NCCCN3CCOCC3)n2)c1 [N^2-(3-Bromophenyl)-N^4-(3-morpholin-4-yl-propyl)-pyrimidine-2,4-diamine]
31 | 2 | Clc1cccc(Nc2nccc(NCCCN3CCOCC3)n2)c1 [N^2-(3-Chlorophenyl)-N^4-(3-morpholin-4-yl-propyl)-pyrimidine-2,4-diamine]
32 | 64 | Fc1cccc(Nc2nccc(NCCCN3CCOCC3)n2)c1 [N^2-(3-Fluorophenyl)-N^4-(3-morpholin-4-yl-propyl)-pyrimidine-2,4-diamine]
33 | 50 | c1ccc(Oc2cccc(Nc3nccc(NCCCN4CCOCC4)n3)c2)cc1 [N^2-(3-Phenoxyphenyl)-N^4-(3-morpholin-4-yl-propyl)-pyrimidine-2,4-diamine]
34 | 3 | c1ccc(-c2cccc(Nc3nccc(NCCCN4CCOCC4)n3)c2)cc1 [N^2-Biphenyl-3-yl-N^4-(3-morpholin-4-yl-propyl)-pyrimidine-2,4-diamine]
35 | 18 | c1cc(Cc2cc3ccccc3[nH]2)cc(Nc2nccc(NCCCN3CCOCC3)n2)c1 [N^2-[3-(1H-Indol-2-ylmethyl)-phenyl]-N^4-(3-morpholin-4-yl-propyl)-pyrimidine-2,4-diamine]
36 | 12 | c1cc(Nc2nccc(NCCCN3CCOCC3)n2)cc(-c2cccc3[nH]ccc23)c1 [N^2-[3-(1H-Indol-4-yl)-phenyl]-N^4-(3-morpholin-4-yl-propyl)-pyrimidine-2,4-diamine]
37 | 40 | c1cc(Nc2nccc(NCCCN3CCOCC3)n2)cc(-c2nc3ccccc3s2)c1 [N^2-[3-(Benzo[d]thiazol-2-yl)-phenyl]-N^4-(3-morpholin-4-yl-propyl)-pyrimidine-2,4-diamine]
38 | 28 | c1cncc(-c2cccc(Nc3nccc(NCCCN4CCOCC4)n3)c2)c1 [N^2-[3-(Pyridin-3-yl)-phenyl]-N^4-(3-morpholin-4-yl-propyl)-pyrimidine-2,4-diamine]
39 | 465 | OCc1cccc(Nc2nccc(NCCCN3CCOCC3)n2)c1 [{3-[4-(3-Morpholin-4-yl-propylamino)-pyrimidin-2-ylamino]-phenyl}-methanol]
